Laboratory results published in the supplement of paper PMC10307832.

How the values were obtained:
Assay in all cases: relative viability (nuclei count vs DMSO), 5 days (fraction); higher = more cells survive
[1] = compound: CC1=C(C(=NN1)C)CC2=C(C3=C(S2)N(C(=O)N(C3=O)C)CC(C)C)C(=O)N4C[C@@H](CO4)O + O=C(c1cc(Cc2n[nH]c(=O)c3ccccc23)ccc1F)N1CCN(C(=O)C2CC2)CC1 [Olaparib] (partner 8 µM)
Procedure, shortened: (§1)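 Dosing by pin tool came one day after lung cancer cell lines were seeded in 1536-well plates, using either one drug or a fixed anchor-drug dose plus five library-drug doses (not always all listed) in √10 steps. After 5 days, nuclei were counted on 4× images. Relative viability is treated-well nuclei count divided by vehicle-well nuclei count, and values are medians of duplicate plates.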

[2] = compound: CC1=C(C(=NN1)C)CC2=C(C3=C(S2)N(C(=O)N(C3=O)C)CC(C)C)C(=O)N4C[C@@H](CO4)O + CC(C)C[C@H](NC(=O)[C@H](Cc1ccccc1)NC(=O)c1cnccn1)B(O)O [Bortezomib] (partner 0.002 µM)
Procedure, shortened: as §1

[3] = compound: CC1=C(C(=NN1)C)CC2=C(C3=C(S2)N(C(=O)N(C3=O)C)CC(C)C)C(=O)N4C[C@@H](CO4)O + Cc1cc(Nc2cc(N3CCN(C)CC3)nc(Sc3ccc(NC(=O)C4CC4)cc3)n2)n[nH]1 [Tozasertib] (partner 0.1 µM)
Procedure, shortened: as §1

[4] = compound: CC1=C(C(=NN1)C)CC2=C(C3=C(S2)N(C(=O)N(C3=O)C)CC(C)C)C(=O)N4C[C@@H](CO4)O + CS(=O)(=O)CCNCc1ccc(-c2ccc3ncnc(Nc4ccc(OCc5cccc(F)c5)c(Cl)c4)c3c2)o1 [Lapatinib] (partner 2 µM)
Procedure, shortened: as §1

HCC-827
relative viability ([1]; first compound 0.0025 µM): 0.641
relative viability ([1]; first compound 0.007906 µM): 0.629
relative viability ([1]; first compound 0.025 µM): 0.58
relative viability ([1]; first compound 0.07906 µM): 0.612
relative viability ([1]; first compound 0.25 µM): 0.612
relative viability ([2]; first compound 0.0025 µM): 0.923
relative viability ([2]; first compound 0.007906 µM): 1.04
relative viability ([2]; first compound 0.025 µM): 0.985
relative viability ([2]; first compound 0.07906 µM): 0.913
relative viability ([2]; first compound 0.25 µM): 1.08
relative viability ([3]; first compound 0.0025 µM): 0.475
relative viability ([3]; first compound 0.007906 µM): 0.437
relative viability ([3]; first compound 0.025 µM): 0.393
relative viability ([3]; first compound 0.07906 µM): 0.428
relative viability ([3]; first compound 0.25 µM): 0.397
relative viability ([4]; first compound 0.0025 µM): 0.189
relative viability ([4]; first compound 0.007906 µM): 0.171
relative viability ([4]; first compound 0.025 µM): 0.192
relative viability ([4]; first compound 0.07906 µM): 0.156
relative viability ([4]; first compound 0.25 µM): 0.167

SK-LU-1
relative viability ([1]; first compound 0.0025 µM): 0.439
relative viability ([1]; first compound 0.007906 µM): 0.366
relative viability ([1]; first compound 0.025 µM): 0.266
relative viability ([1]; first compound 0.07906 µM): 0.332
relative viability ([1]; first compound 0.25 µM): 0.377
relative viability ([2]; first compound 0.0025 µM): 1.15
relative viability ([2]; first compound 0.007906 µM): 0.752
relative viability ([2]; first compound 0.025 µM): 0.425
relative viability ([2]; first compound 0.07906 µM): 0.789
relative viability ([2]; first compound 0.25 µM): 0.541
relative viability ([3]; first compound 0.0025 µM): 0.3
relative viability ([3]; first compound 0.007906 µM): 0.266
relative viability ([3]; first compound 0.025 µM): 0.251
relative viability ([3]; first compound 0.07906 µM): 0.256
relative viability ([3]; first compound 0.25 µM): 0.278
relative viability ([4]; first compound 0.0025 µM): 0.805
relative viability ([4]; first compound 0.007906 µM): 0.425
relative viability ([4]; first compound 0.025 µM): 0.263
relative viability ([4]; first compound 0.07906 µM): 0.295
relative viability ([4]; first compound 0.25 µM): 0.4

NCI-H1975
relative viability ([1]; first compound 0.0025 µM): 0.814
relative viability ([1]; first compound 0.007906 µM): 0.906
relative viability ([1]; first compound 0.025 µM): 0.839
relative viability ([1]; first compound 0.07906 µM): 0.77
relative viability ([1]; first compound 0.25 µM): 0.875
relative viability ([2]; first compound 0.0025 µM): 0.423
relative viability ([2]; first compound 0.007906 µM): 0.338
relative viability ([2]; first compound 0.025 µM): 0.42
relative viability ([2]; first compound 0.07906 µM): 0.409
relative viability ([2]; first compound 0.25 µM): 0.342
relative viability ([3]; first compound 0.0025 µM): 0.801
relative viability ([3]; first compound 0.007906 µM): 0.682
relative viability ([3]; first compound 0.025 µM): 0.791
relative viability ([3]; first compound 0.07906 µM): 0.905
relative viability ([3]; first compound 0.25 µM): 0.739
relative viability ([4]; first compound 0.0025 µM): 0.792
relative viability ([4]; first compound 0.007906 µM): 0.942
relative viability ([4]; first compound 0.025 µM): 0.916
relative viability ([4]; first compound 0.07906 µM): 0.995
relative viability ([4]; first compound 0.25 µM): 1.08

NCI-H1651
relative viability ([1]; first compound 0.0025 µM): 0.178
relative viability ([1]; first compound 0.007906 µM): 0.172
relative viability ([1]; first compound 0.025 µM): 0.205
relative viability ([1]; first compound 0.07906 µM): 0.193
relative viability ([1]; first compound 0.25 µM): 0.199
relative viability ([2]; first compound 0.0025 µM): 0.956
relative viability ([2]; first compound 0.007906 µM): 1.02
relative viability ([2]; first compound 0.025 µM): 0.889
relative viability ([2]; first compound 0.07906 µM): 0.879
relative viability ([2]; first compound 0.25 µM): 0.856
relative viability ([3]; first compound 0.0025 µM): 0.702
relative viability ([3]; first compound 0.007906 µM): 0.802
relative viability ([3]; first compound 0.025 µM): 0.58
relative viability ([3]; first compound 0.07906 µM): 0.625
relative viability ([3]; first compound 0.25 µM): 0.767
relative viability ([4]; first compound 0.0025 µM): 0.922
relative viability ([4]; first compound 0.007906 µM): 0.971
relative viability ([4]; first compound 0.025 µM): 0.771
relative viability ([4]; first compound 0.07906 µM): 0.766
relative viability ([4]; first compound 0.25 µM): 0.833

LCLC-97TM1
relative viability ([1]; first compound 0.0025 µM): 0.492
relative viability ([1]; first compound 0.007906 µM): 0.519
relative viability ([1]; first compound 0.025 µM): 0.404
relative viability ([1]; first compound 0.07906 µM): 0.38
relative viability ([1]; first compound 0.25 µM): 0.414
relative viability ([2]; first compound 0.0025 µM): 0.657
relative viability ([2]; first compound 0.007906 µM): 0.484
relative viability ([2]; first compound 0.025 µM): 0.347
relative viability ([2]; first compound 0.07906 µM): 0.637
relative viability ([2]; first compound 0.25 µM): 0.949
relative viability ([3]; first compound 0.0025 µM): 0.207
relative viability ([3]; first compound 0.007906 µM): 0.277
relative viability ([3]; first compound 0.025 µM): 0.219
relative viability ([3]; first compound 0.07906 µM): 0.209
relative viability ([3]; first compound 0.25 µM): 0.285
relative viability ([4]; first compound 0.0025 µM): 0.721
relative viability ([4]; first compound 0.007906 µM): 0.776
relative viability ([4]; first compound 0.025 µM): 0.896
relative viability ([4]; first compound 0.07906 µM): 0.972
relative viability ([4]; first compound 0.25 µM): 1.13

NCI-H727
relative viability ([1]; first compound 0.0025 µM): 0.813
relative viability ([1]; first compound 0.007906 µM): 0.762
relative viability ([1]; first compound 0.025 µM): 0.747
relative viability ([1]; first compound 0.07906 µM): 0.782
relative viability ([1]; first compound 0.25 µM): 0.568
relative viability ([2]; first compound 0.0025 µM): 0.919
relative viability ([2]; first compound 0.007906 µM): 0.583
relative viability ([2]; first compound 0.025 µM): 0.694
relative viability ([2]; first compound 0.07906 µM): 0.716
relative viability ([2]; first compound 0.25 µM): 0.873
relative viability ([3]; first compound 0.0025 µM): 0.676
relative viability ([3]; first compound 0.007906 µM): 0.788
relative viability ([3]; first compound 0.025 µM): 0.696
relative viability ([3]; first compound 0.07906 µM): 0.513
relative viability ([3]; first compound 0.25 µM): 0.513
relative viability ([4]; first compound 0.0025 µM): 1.17
relative viability ([4]; first compound 0.007906 µM): 0.857
relative viability ([4]; first compound 0.025 µM): 0.781
relative viability ([4]; first compound 0.07906 µM): 0.569
relative viability ([4]; first compound 0.25 µM): 0.869

NCI-H1355
relative viability ([1]; first compound 0.0025 µM): 0.889
relative viability ([1]; first compound 0.007906 µM): 0.806
relative viability ([1]; first compound 0.025 µM): 0.783
relative viability ([1]; first compound 0.07906 µM): 0.738
relative viability ([1]; first compound 0.25 µM): 0.724
relative viability ([2]; first compound 0.0025 µM): 1.2
relative viability ([2]; first compound 0.007906 µM): 1.28
relative viability ([2]; first compound 0.025 µM): 1.24
relative viability ([2]; first compound 0.07906 µM): 1.15
relative viability ([2]; first compound 0.25 µM): 1.23
relative viability ([3]; first compound 0.0025 µM): 0.527
relative viability ([3]; first compound 0.007906 µM): 0.437
relative viability ([3]; first compound 0.025 µM): 0.529
relative viability ([3]; first compound 0.07906 µM): 0.566
relative viability ([3]; first compound 0.25 µM): 0.623
relative viability ([4]; first compound 0.0025 µM): 1.08
relative viability ([4]; first compound 0.007906 µM): 1.11
relative viability ([4]; first compound 0.025 µM): 0.918
relative viability ([4]; first compound 0.07906 µM): 0.945
relative viability ([4]; first compound 0.25 µM): 0.943

HOP-62
relative viability ([1]; first compound 0.0025 µM): 0.408
relative viability ([1]; first compound 0.007906 µM): 0.434
relative viability ([1]; first compound 0.025 µM): 0.545
relative viability ([1]; first compound 0.07906 µM): 0.425
relative viability ([1]; first compound 0.25 µM): 0.515
relative viability ([2]; first compound 0.0025 µM): 0.535
relative viability ([2]; first compound 0.007906 µM): 1.03
relative viability ([2]; first compound 0.025 µM): 0.753
relative viability ([2]; first compound 0.07906 µM): 0.557
relative viability ([2]; first compound 0.25 µM): 1.07
relative viability ([3]; first compound 0.0025 µM): 0.312
relative viability ([3]; first compound 0.007906 µM): 0.376
relative viability ([3]; first compound 0.025 µM): 0.344
relative viability ([3]; first compound 0.07906 µM): 0.393
relative viability ([3]; first compound 0.25 µM): 0.407
relative viability ([4]; first compound 0.0025 µM): 1.05
relative viability ([4]; first compound 0.007906 µM): 0.946
relative viability ([4]; first compound 0.025 µM): 1.05
relative viability ([4]; first compound 0.07906 µM): 0.952
relative viability ([4]; first compound 0.25 µM): 1.08

NCI-H2085
relative viability ([1]; first compound 0.0025 µM): 0.736
relative viability ([1]; first compound 0.007906 µM): 0.686
relative viability ([1]; first compound 0.025 µM): 0.704
relative viability ([1]; first compound 0.07906 µM): 0.72
relative viability ([1]; first compound 0.25 µM): 0.752
relative viability ([2]; first compound 0.0025 µM): 1.04
relative viability ([2]; first compound 0.007906 µM): 0.978
relative viability ([2]; first compound 0.025 µM): 0.947
relative viability ([2]; first compound 0.07906 µM): 0.98
relative viability ([2]; first compound 0.25 µM): 0.926
relative viability ([3]; first compound 0.0025 µM): 0.723
relative viability ([3]; first compound 0.007906 µM): 0.622
relative viability ([3]; first compound 0.025 µM): 0.76
relative viability ([3]; first compound 0.07906 µM): 0.72
relative viability ([3]; first compound 0.25 µM): 0.669
relative viability ([4]; first compound 0.0025 µM): 0.706
relative viability ([4]; first compound 0.007906 µM): 0.767
relative viability ([4]; first compound 0.025 µM): 0.598
relative viability ([4]; first compound 0.07906 µM): 0.72
relative viability ([4]; first compound 0.25 µM): 0.595
